Results: PubChem BioAssay (NCI)
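Interpolation was linear, between the two tested concentrations surrounding the appropriate level; five concentrations were tested over 48 hours in 96-well plates. At the GI50, growth is halved. The concentration for full growth arrest is given as TGI.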

Experiments:
Assay in all cases: growth of human tumour cells (NCI), 48 h
[1] = system: 786-0 renal
[2] = system: A498 renal
[3] = system: A549 NSCLC
[4] = system: ACHN renal
[5] = system: BT-549 breast
[6] = system: CAKI-1 renal
[7] = system: CCRF-CEM leukemia
[8] = system: COLO 205 colon
[9] = system: DU-145 prostate
[10] = system: EKVX NSCLC
[11] = system: HCC-2998 colon
[12] = system: HCT-116 colon
[13] = system: HCT-15 colon
[14] = system: HL-60(TB) leukemia
[15] = system: HOP-62 NSCLC
[16] = system: HOP-92 NSCLC
[17] = system: HS 578T breast
[18] = system: HT29 colon
[19] = system: IGROV1 ovarian
[20] = system: K-562 leukemia
[21] = system: KM12 colon
[22] = system: LOX IMVI melanoma
[23] = system: M14 melanoma
[24] = system: MALME-3M melanoma
[25] = system: MCF7 breast
[26] = system: MDA-MB-231 breast
[27] = system: MDA-MB-435
[28] = system: MOLT-4 leukemia
[29] = system: NCI-H226 lung
[30] = system: NCI-H23 lung
[31] = system: NCI-H460 lung
[32] = system: NCI-H522 lung
[33] = system: NCI/ADR-RES ovarian
[34] = system: OVCAR-3 ovarian
[35] = system: OVCAR-4 ovarian
[36] = system: OVCAR-5 ovarian
[37] = system: OVCAR-8 ovarian
[38] = system: PC-3 prostate
[39] = system: RPMI-8226 leukemia
[40] = system: RXF 393 renal
[41] = system: SF-268 CNS
[42] = system: SF-295 CNS
[43] = system: SF-539 CNS
[44] = system: SK-MEL-2 melanoma
[45] = system: SK-MEL-28 melanoma
[46] = system: SK-MEL-5 melanoma
[47] = system: SK-OV-3 ovarian
[48] = system: SN12C renal
[49] = system: SNB-19 CNS
[50] = system: SNB-75 CNS
[51] = system: SW-620 colon
[52] = system: T-47D breast
[53] = system: TK-10 renal
[54] = system: U251 CNS
[55] = system: UACC-257 melanoma
[56] = system: UACC-62 melanoma
[57] = system: UO-31 renal

## CN([O-])c1nc(N(C)[O-])nc(N2CCOCC2)n1.CN([O-])c1nc(N(C)[OH2+])nc(N2CCOCC2)n1.[Fe+3]
[1]
  GI50: > 100 µM
  TGI: > 100 µM
[2]
  GI50: 0.0197 µM
  TGI: > 100 µM
[3]
  GI50: > 100 µM
  TGI: > 100 µM
[4]
  GI50: > 100 µM
  TGI: > 100 µM
[5]
  GI50: > 100 µM
  TGI: > 100 µM
[6]
  GI50: > 100 µM
  TGI: > 100 µM
[7]
  GI50: > 100 µM
  TGI: > 100 µM
[8]
  GI50: > 100 µM
  TGI: > 100 µM
[9]
  GI50: > 100 µM
  TGI: > 100 µM
[10]
  GI50: > 100 µM
  TGI: > 100 µM
[11]
  GI50: > 100 µM
  TGI: > 100 µM
[12]
  GI50: 96.6 µM
  TGI: > 100 µM
[13]
  GI50: > 100 µM
  TGI: > 100 µM
[14]
  GI50: > 100 µM
  TGI: > 100 µM
[15]
  GI50: 89.6 µM
  TGI: > 100 µM
[16]
  GI50: 0.487 µM
  TGI: > 100 µM
[17]
  GI50: > 100 µM
  TGI: > 100 µM
[18]
  GI50: > 100 µM
  TGI: > 100 µM
[19]
  GI50: > 100 µM
  TGI: > 100 µM
[20]
  GI50: 48.6 µM
  TGI: > 100 µM
[21]
  GI50: 57.1 µM
  TGI: > 100 µM
[22]
  GI50: 15.5 µM
  TGI: 36 µM
[23]
  GI50: 41.5 µM
  TGI: > 100 µM
[24]
  GI50: 54.9 µM
  TGI: > 100 µM
[25]
  GI50: > 100 µM
  TGI: > 100 µM
[26]
  GI50: > 100 µM
  TGI: > 100 µM
[27]
  GI50: 61.8 µM
  TGI: > 100 µM
[28]
  GI50: > 100 µM
  TGI: > 100 µM
[29]
  GI50: > 100 µM
  TGI: > 100 µM
[30]
  GI50: > 100 µM
  TGI: > 100 µM
[31]
  GI50: 18.3 µM
  TGI: 34.4 µM
[32]
  GI50: 23.8 µM
  TGI: 94.7 µM
[33]
  GI50: > 100 µM
  TGI: > 100 µM
[34]
  GI50: > 100 µM
  TGI: > 100 µM
[35]
  GI50: > 100 µM
  TGI: > 100 µM
[36]
  GI50: > 100 µM
  TGI: > 100 µM
[37]
  GI50: > 100 µM
  TGI: > 100 µM
[38]
  GI50: > 100 µM
  TGI: > 100 µM
[39]
  GI50: > 100 µM
  TGI: > 100 µM
[40]
  GI50: 68.3 µM
  TGI: > 100 µM
[41]
  GI50: 57.4 µM
  TGI: > 100 µM
[42]
  GI50: 57.6 µM
  TGI: > 100 µM
[43]
  GI50: > 100 µM
  TGI: > 100 µM
[44]
  GI50: 81.8 µM
  TGI: > 100 µM
[45]
  GI50: 84.8 µM
  TGI: > 100 µM
[46]
  GI50: > 100 µM
  TGI: > 100 µM
[47]
  GI50: > 100 µM
  TGI: > 100 µM
[48]
  GI50: > 100 µM
  TGI: > 100 µM
[49]
  GI50: > 100 µM
  TGI: > 100 µM
[50]
  GI50: > 100 µM
  TGI: > 100 µM
[51]
  GI50: > 100 µM
  TGI: > 100 µM
[52]
  GI50: > 100 µM
  TGI: > 100 µM
[53]
  GI50: > 100 µM
  TGI: > 100 µM
[54]
  GI50: 27.5 µM
  TGI: > 100 µM
[55]
  GI50: > 100 µM
  TGI: > 100 µM
[56]
  GI50: > 100 µM
  TGI: > 100 µM
[57]
  GI50: > 100 µM
  TGI: > 100 µM
